From patent publication US6306899A (priority 1999, dated 2001)
Converted amounts (≈) assume the structure as drawn. Read-outs that look alike come from different tables or passages of the source.

What was measured:
HBsAg in HepA2 cells = experiment: Suppression of HBsAg secretion in HepA2 cells, serum-free, 2 days; type: cell-based; conditions: Homo sapiens, HepA2, 48 h, read-out: EC50 HepA2 (50% reduction of HBsAg secretion)
Excerpt: (§1) Biological testing results of Helioxanthin and
(§2) its derivatives for suppression of HBsAg
(§3) in HepA2 and Hep3B cells in serum-free condition for 2 days
The symbol, "*" denotes HepA2, HBV DNA stable transfected HBV dimer DNA.
(§4) The symbol, "**" denotes EC50, the concentration of tested compounds
(§5) which exerted 50% reduction of HBsAg secretion in human hepatoma cells.

HBsAg in Hep3B cells = experiment: Suppression of HBsAg secretion in Hep3B cells, serum-free, 2 days; type: cell-based; conditions: Homo sapiens, 48 h, read-out: EC50 Hep3B (50% reduction of HBsAg secretion)
Excerpt: as §1, §2, §3, §4, §5

HBsAg = experiment: microbe, parasite or virus in culture; type: cell-based, Hepatitis B virus; conditions: Hepatitis B virus, 144 h, read-out: Anti-viral activity (ED50) HbsAg
HBV = experiment: microbe, parasite or virus in culture; type: cell-based, Hepatitis B virus; conditions: Hepatitis B virus, 144 h
Yellow Fever virus = experiment: microbe, parasite or virus in culture; type: cell-based
[1] = Cytotoxicity, HepG2 cell growth; type: cell-based; conditions: human, hepg2 cells; 3 days; read-out: Cytotoxicity (IC50) HepG2 cell
Description: (§6) To determine the cellular toxicity of the present compounds, the T-lymphoblastoic cell line (CEM) and the HEP-G2 cell line (parent cell line from which 2.2.15 cell line is produced) were used. Cells were subjected to varying concentrations of the drug(s) and cell numbers were determined 3 days post treatment by the method described by Chen, C-H and Cheng, Y-C, J. Biol. Chem., 264, 11934 (1989). Concentrations of the drug which would result in inhibition of cell growth were determined from the plot generated by representing cell numbers corresponding to the individual drug concentrations.

[2] = Cytotoxicity, CEM cell growth; type: cell-based; conditions: human, cem cells; 3 days; read-out: Cytotoxicity (IC50) CEM cell
Description: as §6

[3] = Solubility: saturated solution in PBS at room temperature; type: physicochemical; conditions: aqueous buffer
Excerpt: 3. The symbol "*" denotes the concentration of the saturated solution in
PBS at room temperature.

[4] = Yellow fever virus, BHK, 144 h, read-out: Anti-viral activity (ED50) YFV, plaque reduction, BHK cells, 6 days

Compound: COc1cc(C2c3cc(OC(C)=O)c(OC)cc3CC3C(=O)OCC32)ccc1OC(C)=O (centres unmarked) [Conidendrin Diacetate]
- EC50 (HBsAg in HepA2 cells): > 12.5 µM
- EC50 (HBsAg in Hep3B cells): > 12.5 µM

Compound: COc1ccc(C2c3cc(OC)c(OC)cc3CC3C(=O)OCC32)cc1OC (centres unmarked) [Conidendrin Methyl Ether]
- EC50 (HBsAg in HepA2 cells): > 12.5 µM
- EC50 (HBsAg in Hep3B cells): > 12.5 µM

Compound: COc1cc(C2c3cc(O)c(OC)cc3CC3C(=O)OCC32)ccc1O (centres unmarked) [Conidendrin]
- EC50 (HBsAg in HepA2 cells): > 12.5 µM
- EC50 (HBsAg in Hep3B cells): > 12.5 µM

Compound: COc1cc(-c2c3c(cc4cc(OC)c(O)cc24)C(=O)OC3)ccc1O [Dehydroconidendrin]
- EC50 (HBsAg in HepA2 cells): > 12.5 µM
- EC50 (HBsAg in Hep3B cells): > 12.5 µM

Compound: COc1cc(-c2c3c(cc4cc(OC)c(OC(C)=O)cc24)C(=O)OC3)ccc1OC(C)=O [Diacetate]
- EC50 (HBsAg in HepA2 cells): > 12.5 µM
- EC50 (HBsAg in Hep3B cells): > 12.5 µM

Compound: COc1cc2c(OC(C)=O)c3c(c(-c4ccc5c(c4)OCO5)c2cc1OC)C(=O)OC3 [Diphylline Acetate]
- EC50 (HBsAg in HepA2 cells): > 12.5 µM
- EC50 (HBsAg in Hep3B cells): > 12.5 µM

Compound: COc1cc2c(O)c3c(c(-c4ccc5c(c4)OCO5)c2cc1OC)C(=O)OC3 [Diphylline]
- EC50 (HBsAg in HepA2 cells): > 12.5 µM
- EC50 (HBsAg in Hep3B cells): > 12.5 µM

Compound: COc1cc2c(OC)c3c(c(-c4ccc5c(c4)OCO5)c2cc1OC)C(=O)OC3 [Justicidin A]
- EC50 (HBsAg in HepA2 cells): > 12.5 µM
- EC50 (HBsAg in Hep3B cells): > 12.5 µM

Compound: O=C1OCc2cc3cc4c(cc3c(-c3ccc5c(c3)OCO5)c21)OCO4 [Taiwanin C]
- EC50 (HBsAg in HepA2 cells): 1.25 µM
- EC50 (HBsAg in Hep3B cells): 1 µM

Compound: CC(=O)Oc1c2c(c(-c3ccc4c(c3)OCO4)c3cc4c(cc13)OCO4)C(=O)OC2 [Taiwanin E acetate]
- EC50 (HBsAg in HepA2 cells): > 12.5 µM
- EC50 (HBsAg in Hep3B cells): > 12.5 µM

Compound: O=C1OCc2c1c(-c1ccc3c(c1)OCO3)c1cc3c(cc1c2O)OCO3 [Taiwanin E]
- EC50 (HBsAg in HepA2 cells): > 12.5 µM
- EC50 (HBsAg in Hep3B cells): > 12.5 µM

Compound: O=C1OC(=O)c2c1cc1c(Br)cc3c(c1c2-c1cc2c(cc1Br)OCO2)OCO3 [ZHU-IX-120-1, 5-bromo-7,8-methylenedioxy-1-(2'-bromo-4',5'-methylenedioxyphenyl)napthalene-2,3-dicarboxylic acid anhydride]
- EC50 (HBsAg): > 10 µM
- EC50 (HBV): > 10 µM
- EC50 (Yellow Fever virus; [4]): > 10 µM
- CC50 at 72 h [1]: 6 µM
- CC50 at 72 h [2]: > 30 µM
- solubility [3]: 13.8 µM (≈ 7.18 µg/mL)

Compound: O=C1OC(=O)c2c1c(Br)c1cc3c(cc1c2-c1cc2c(cc1Br)OCO2)OCO3 [ZHU-IX-120-2, 1-bromo-6,7-methylenedioxy-4-(2'-bromo-4', 5'-methylenedioxyphenyl)napthalene-2,3-dicarboxylic acid anyhdride]
- EC50 (HBsAg): > 10 µM
- EC50 (HBV): > 10 µM
- EC50 (Yellow Fever virus; [4]): > 10 µM
- CC50 at 72 h [1]: 6 µM
- CC50 at 72 h [2]: > 30 µM
- solubility [3]: 13.1 µM (≈ 6.81 µg/mL)

Compound: O=C(O)c1c(CO)cc2ccc3c(c2c1-c1ccc2c(c1)OCO2)OCO3 [ZHU-IX-153, sodium 7,8-methylenedioxy-1-(3',4'-methylendioxyphenyl)-3-hydroxymethylnapthalene-2-carbonate]
- EC50 (HBsAg): > 10 µM
- EC50 (HBV): > 10 µM
- EC50 (Yellow Fever virus; [4]): > 10 µM
- CC50 at 72 h [1]: > 30 µM
- solubility [3]: 255 µM

Compound: Cc1cc2ccc3c(c2c(-c2ccc4c(c2)OCO4)c1CO)OCO3 [ZHU-IX-159, 3-methyl-7,8-methylenedioxy-1-(3',4'-methylenedioxyphenyl)-2-hydroxymethylenaphtalene]
- EC50 (HBsAg): 10 µM
- EC50 (HBV): > 10 µM
- EC50 (Yellow Fever virus; [4]): > 10 µM
- CC50 at 72 h [1]: 16 µM
- solubility [3]: 24.4 µM (≈ 8.21 µg/mL)

Compound: Cc1cc2ccc3c(c2c(-c2ccc4c(c2)OCO4)c1C)OCO3 [ZHU-IX-163-2]
- EC50 (HBsAg): > 10 µM
- EC50 (HBV): > 10 µM
- EC50 (Yellow Fever virus; [4]): > 10 µM
- CC50 at 72 h [1]: 17 µM
- solubility [3]: 18.4 µM (≈ 5.89 µg/mL)

Compound: Cc1c(C=O)cc2ccc3c(c2c1-c1ccc2c(c1)OCO2)OCO3 [ZHU-IX-189, 5,6-methylenedioxy-4-(3',4'-methylendioxyphenyl)-2-methylnapthalene-3-aldehyde]
- EC50 (HBsAg): > 10 µM
- EC50 (HBV): > 10 µM
- EC50 (Yellow Fever virus; [4]): > 25 µM

Compound: Cc1c(C(=O)O)cc2ccc3c(c2c1-c1ccc2c(c1)OCO2)OCO3 [ZHU-X-4]
- EC50 (HBsAg): > 10 µM
- EC50 (HBV): > 10 µM
- EC50 (Yellow Fever virus; [4]): > 20 µM

Compound: Cc1c(C(=O)O)cc2ccc3c(c2c1-c1ccc2c(c1)OCO2)OCO3 [ZHU-X-10, sodium 5,6-methylenedioxy-4-(3',4'-methylenedioxyphenyl)-2-methylnapthalene-3-carbonate]
- EC50 (Yellow Fever virus; read-out: Anti-viral activity (ED50) YFV, plaque reduction, BHK cells, 6 days, 8640 min): > 25 µM
